From BindingDB's records for doi:10.1016/j.bmcl.2009.09.014 (Johnson & Johnson Pharmaceutical, 2009)

Target: Cathepsin S (Homo sapiens, UniProt P25774)
Assay: Cathepsn S Inhibition Assay
Settings: pH 5; 23 °C
Method: Enzyme assays were run using fluorescence resonance energy transfer-based substrates, (Aedens)[…](Dabcyl)K-amide and cathepsin S cleaves between amino acids Leu-6 and Ala-7. The fluorescence of the aedens group is quenched by the dabcyl moiety in the intact peptide. Upon cleavage by cathepsin S, the quenching is released and the fluorescence of the aedens group can be measured. The increase in fluorescence was measured on a Cytofluor II (Applied Biosystems, Foster City, CA) with an excitation filter of 360/40 nm and an emission filter of 460/40 nm. A reading was made every minute for 20 to 60 min, and the slope obtained from a linear regression of this time course was used as the reaction rate. The reaction rates were determined for different inhibitor concentrations, and the percentage of inhibition was determined by comparison with the reaction rate in the absence of inhibitor. IC50 values were determined by four parameter fits of plots of the percentage of inhibition versus inhibitor concentration using the program GraFit (Erithacus Software Ltd.).

Sequence of Cathepsin S (P25774 whole entry): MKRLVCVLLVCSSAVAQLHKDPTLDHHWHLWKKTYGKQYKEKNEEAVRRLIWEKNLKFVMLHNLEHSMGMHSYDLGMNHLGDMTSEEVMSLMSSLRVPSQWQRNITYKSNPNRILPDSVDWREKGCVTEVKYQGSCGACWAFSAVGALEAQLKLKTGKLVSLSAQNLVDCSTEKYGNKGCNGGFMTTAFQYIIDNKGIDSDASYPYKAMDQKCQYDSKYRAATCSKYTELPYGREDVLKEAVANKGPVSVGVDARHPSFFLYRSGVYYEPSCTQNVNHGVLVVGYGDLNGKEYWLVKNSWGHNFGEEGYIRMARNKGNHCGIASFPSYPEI

Question: How did the IC50 turn out when `C#Cc1cc(-c2nn(CCCN3CCOCC3)c3c2CN(S(C)(=O)=O)CC3)ccc1Cl` [arylalkyne pyrazole-based compound, 11] was run?
Answer: The IC50 was 7.4 µM.

Question: With `COC(=O)C(=O)N1CCc2c(c(-c3ccc(Cl)c(C#Cc4ccc(Cl)cc4)c3)nn2CCCN2CCOCC2)C1` [arylalkyne pyrazole-based compound, 33] as the compound, how does the IC50 read?
Answer: Its IC50 is 0.04 µM.
